Data on 46 compounds can be found in patent US11286268B1, “EIF4E-inhibiting compounds and methods” (EFFECTOR THERAPEUTICS, INC., priority 2019, dated 2022).

Like-named read-outs stand apart in the source and are kept apart here.

In the assay the target is recombinant eIF4E (Homo sapiens (Human), UniProt P06730). Put plainly: Fluorescence polarization competition assay for eIF4E binding potency. Put shortly: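 FP readout; IC50 fit from 8-point, 3-fold series. 75 nM eIF4E + 20 nM ATTO-550-labelled m7GDP probe, Tris pH 7.5/NaCl/DTT/Tween buffer, 1% DMSO final. 30 min RT equilibration, light-protected.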
recombinant eIF4E, sequence (P06730 whole entry): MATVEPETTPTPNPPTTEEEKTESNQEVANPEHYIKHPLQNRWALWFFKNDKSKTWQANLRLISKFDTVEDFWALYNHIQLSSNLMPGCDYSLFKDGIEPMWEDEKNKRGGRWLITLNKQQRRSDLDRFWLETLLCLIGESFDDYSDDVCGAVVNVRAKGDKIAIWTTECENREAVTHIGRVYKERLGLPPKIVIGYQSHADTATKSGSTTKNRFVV
A general note: In fluorescence polarisation assays a small probe gives low polarisation when free and higher when bound to something large.

The mark [1] stands for this setting: fluorescence polarization competition, 75 nM recombinant eIF4E, 20 nM EDA-m7GDP-ATTO-550, IC50 class, read-out: elF4E FP.
The mark [2] stands for this setting: inhibition of eIF4E/EDA-m7GDP-ATTO-550 binding by 50%, Table 4B calculated values, read-out: IC50.
[3] abbreviates: inhibition of eIF4E/EDA-m7GDP-ATTO-550 binding, calculated IC50 values, Table 4B, read-out: IC50.

In the case of `Cc1nc2cnc(N3CCC4(CC3)CN(CC(F)F)C4)c(C#N)c2c(=O)n1CC#Cc1ccc(Cl)cc1-c1ccnc2c(C(=O)O)csc12` [compound 1136], the IC50 by setting is: under setting [1], under 50 nM; under setting [2], 17 nM.

With `Cc1ccc(-c2cc(Cl)ccc2OCCn2c(C)nc3cc(C(F)(F)F)c(CN(C)C)c(C#N)c3c2=O)c2scc(C(=O)O)c12` [compound 564], the IC50 is under 50 nM under setting [1] and 40.5 nM under setting [2].

For the compound `Cc1nc2ccc(C(F)F)c(C#N)c2c(=O)n1CCOc1ccc(Cl)cc1-c1cccc(C(=O)O)c1` [compound 62], the IC50 runs as follows: under setting [1], under 50 nM; under setting [2], 24.9 nM. For `Cc1cc(-c2cc(Cl)ccc2OCCn2c(C)nc3cc(CCCN(C)C)c(Cl)c(C#N)c3c2=O)c2scc(C(=O)O)c2n1` [compound 606], in that order: under 50 nM and 4.12 nM. The like results for `Cc1nc2cc(C(F)(F)F)c(-c3cccnc3)c(C#N)c2c(=O)n1CCOc1ccc(Cl)cc1-c1cccc(C(=O)O)c1` [compound 388] were, in that order, under 50 nM and 6.29 nM. The like results for `Cc1nc2cc(C(F)(F)F)cc(C#N)c2c(=O)n1CCOc1ccc(Cl)cc1-c1cnnc2c(C(=O)O)csc12` [compound 314] were, in that order, under 50 nM and 42.8 nM.

Turning to `Cc1nc2cc(CN(C)Cc3cn(C)nn3)c(OC(F)F)c(C#N)c2c(=O)n1CCOc1ccc(Cl)cc1-c1ccnc2c(C(=O)O)csc12` [compound 651], the IC50 by setting is: under setting [1], under 50 nM; under setting [2], 21.8 nM.

In the case of `Cc1nc2cc(C(F)(F)F)cc(C#N)c2c(=O)n1CC#Cc1ccc(Cl)cc1-c1ccnc2c(C(=O)O)csc12` [compound 120], the IC50 is, setting by setting: under setting [1], under 50 nM; under setting [2], 35.7 nM.

Take `Cc1nc2cnc(N3CCN(C)CC3)c(C#N)c2c(=O)n1CCOc1ccc(Cl)cc1-c1ccnc2c(C(=O)O)csc12` [compound 707]: the IC50 by setting is: under setting [1], under 50 nM; under setting [2], 17.8 nM. The like results for `Cc1nc2cc(C(F)(F)F)cc(C#N)c2c(=O)n1CCOc1ccc(Cl)cc1-c1ccnc2c(C(=O)O)coc12` [compound 325] were, in that order, 50 to 1000 nM and 52 nM. As to `CCN(c1ncc2nc(C)n(CC#Cc3ccc(Cl)cc3-c3ccnc4c(C(=O)NS(C)(=O)=O)csc34)c(=O)c2c1C#N)C1CCN([C@H]2C[C@@H](OC(F)(F)F)C2)CC1` [compound 1776], the IC50 under setting [3] was 3.65 nM.

In the case of `O=C(O)c1cccc(-c2cc(Cl)ccc2OCCn2cnc3cccnc3c2=O)c1` [compound 21], the IC50 is 50 to 1000 nM under setting [1] and 575 nM under setting [2]. As for `Cc1nc2cnc(N3CCN(C4(C)CC(F)(F)C4)CC3)c(C#N)c2c(=O)n1CCOc1ccc(Cl)cc1-c1ccnc2c(C(=O)O)csc12` [compound 1641], under setting [3], the IC50 is 18.9 nM. The same measure, in the same setting: the figure for `CCN(c1ncc2nc(C)n(CC#Cc3ccc(Cl)cc3-c3ccnc4c(C(=O)NS(=O)(=O)c5ccccn5)csc34)c(=O)c2c1C#N)C1CCN([C@H]2C[C@@H](OC(F)(F)F)C2)CC1` [compound 1781] is 8.32 nM; for `Cc1cc(-c2cc(Cl)ccc2OCCn2c(C)nc3c(C)nc(CN(C)C)cc3c2=O)c2scc(C(=O)O)c2n1` [compound 1959] it is 46.3 nM. With `Cc1cc(-c2cc(Cl)ccc2OCCn2c(C)nc3cc(C(F)(F)F)c(C#N)nc3c2=O)c2scc(C(=O)O)c2n1` [compound 785], the IC50 is, setting by setting: under setting [1], under 50 nM; under setting [2], 18.2 nM. The like results for `Cc1cc(-c2cc(Cl)ccc2OCCn2c(C)nc3c(-c4ccccc4)nc(N4CCC4)c(C#N)c3c2=O)c2scc(C(=O)O)c2n1` [compound 1008] were, in that order, under 50 nM and 15.3 nM. For `Cc1nc2cc(C(F)(F)F)cc(C#N)c2c(=O)n1CCOc1ccc(Cl)cc1-c1cc(=O)n(C)c2c(C(=O)O)csc12` [compound 332], in that order: under 50 nM and 37.7 nM. `N#Cc1cncc2ncn(CCOc3ccc(Cl)cc3-c3ccc(C(=O)O)c(CCCCC(O)CO)c3)c(=O)c12` (stereo not shown) [compound 184]: the IC50 under setting [1] lay in the range of 50 to 1000 nM. Turning to `Cc1nc2cnc(N(C)C3CCN(C4CC(F)C4)CC3)c(C#N)c2c(=O)n1CC#Cc1ccc(Cl)cc1-c1ccnc2c(C(=O)O)csc12` (stereo not shown) [compound 1181], the IC50 under setting [1] was under 50 nM and the IC50 under setting [2] was 13.7 nM. As to `CCc1cc(-c2cc(Cl)ccc2OCCn2c(=O)[nH]c3cc(Cl)cc(C#N)c3c2=O)c2scc(C(=O)O)c2n1` [compound 1078], the IC50 under setting [1] is 50 to 1000 nM and the IC50 under setting [2] is 347 nM. Consider `Cc1nc2cnc(N3CCC4(CC3)CN(CC(C)(F)F)C4)c(C#N)c2c(=O)n1CC#Cc1ccc(Cl)cc1-c1ccnc2c(C(=O)NS(=O)(=O)c3cccnc3)csc12` [compound 1412], for which, under setting [3], the IC50 is 6.71 nM. Still for that read-out and setting: the figure for `Cc1nc2cc(C(F)(F)F)c(N3CCN(C)CC3)c(C#N)c2c(=O)n1CCOc1ccc(Cl)cc1-c1cc(CF)nc2ccsc12` [compound 1253] is 8.4 nM. Turning to `Cc1c(CN(C)C)c(C(F)(F)F)cc2nc(C)n(CCOc3ccc(Cl)cc3-c3ccnc4c(C(=O)O)csc34)c(=O)c12` [compound 620], the IC50 was under 50 nM under setting [1] and 36.9 nM under setting [2].

As to `Cc1cc(-c2cc(Cl)ccc2OCCn2c(C)nc3cnc(N4CC(O)C4)c(C#N)c3c2=O)c2scc(C(=O)O)c2n1` [compound 1011], the IC50 was under 50 nM under setting [1] and 7.15 nM under setting [2]. On to `Cc1nc2cnc(N3CCN(C)C4(CC4)C3)c(C#N)c2c(=O)n1CCOc1ccc(Cl)cc1-c1ccnc2c(C(=O)O)csc12` [compound 1337], for which the IC50 under setting [3] is 51.9 nM.

`N#Cc1cc2c(=O)n(CCOc3ccc(Cl)cc3-c3ccc(OC(F)F)c(C(=O)O)c3)cnc2cn1` [compound 111]: the IC50 was 50 to 1000 nM under setting [1] and 434 nM under setting [2]. For `Cc1cc(-c2cc(Cl)ccc2OCCn2c(C)nc3c(C)nc(-c4ccccc4F)c(C#N)c3c2=O)c2scc(C(=O)O)c2n1` [compound 476], in that order: under 50 nM and 33.9 nM.

As for `C#Cc1c(-c2cc(Cl)ccc2OCCn2c(C)nc3cc(C(F)(F)F)cc(C#N)c3c2=O)ccnc1C(=O)O` [compound 58], the IC50 is 50 to 1000 nM under setting [1] and 50.2 nM under setting [2].

As for `Cc1cc(-c2cc(Cl)ccc2OCCn2c(C)nc3cc(Cl)c(Nc4cccnc4)c(C#N)c3c2=O)c2scc(C(=O)O)c2n1` [compound 700], the IC50 is under 50 nM under setting [1] and 22.4 nM under setting [2]. For `Cc1nc2c(N3CCN(CCCC(F)(F)F)CC3)ncc(C#N)c2c(=O)n1CCOc1ccc(Cl)cc1-c1ccnc2c(C(=O)O)csc12` [compound 843], in that order: under 50 nM and 13.1 nM.

Regarding `Cc1cc(-c2cc(Cl)ccc2OCCn2c(C)nc3c(C(C)C)ncc(C#N)c3c2=O)c2scc(C(=O)O)c2n1` [compound 491], the IC50 by setting is: under setting [1], under 50 nM; under setting [2], 22.9 nM. With `Cc1nc2cnc(N(C)C3CCN(C4CC4)C4(CC4)C3)c(C#N)c2c(=O)n1CC#Cc1ccc(Cl)cc1-c1ccnc2c(C(=O)O)csc12` (stereo not shown) [compound 1496], the IC50 under setting [3] is 32.5 nM. Same read-out and setting: the figure for `Cc1nc2cnc(N3CCC(C)(N(C)CC(F)F)CC3)c(C#N)c2c(=O)n1CC#Cc1ccc(Cl)cc1-c1ccnc2c(C(=O)O)csc12` [compound 1414] is 15.3 nM. Regarding `Cc1nc2ccc(S(=O)(=O)N3CCC3)c(C#N)c2c(=O)n1CCOc1ccc(Cl)cc1-c1ccnc2c(C(=O)O)csc12` [compound 248], the IC50 was 50 to 1000 nM under setting [1] and 52.3 nM under setting [2].

Take `N#Cc1cccc2c1c(=O)n(CCOc1ccc(Cl)cc1-c1ccnc3c(C(=O)O)csc13)c1ccccc21` [compound 657]: the IC50 is under 50 nM under setting [1] and 45.7 nM under setting [2]. The like results for `CNC(=O)Cc1cc2c(=O)n(CCOc3ccc(Cl)cc3-c3cccc(C(=O)O)c3)cnc2cn1` [compound 137] were, in that order, 50 to 1000 nM and 904 nM. For `COC(C)c1ncc2nc(C)n(CCOc3ccc(Cl)cc3-c3cc(C)nc4c(C(=O)O)csc34)c(=O)c2c1C#N` (stereo not shown) [compound 988], in that order: under 50 nM and 21.9 nM. For `Cc1cc(-c2cc(Cl)ccc2OCCn2c(C)nc3cc(C(F)(F)F)c(-c4nc(C(F)F)ccc4F)c(C#N)c3c2=O)c2scc(C(=O)O)c2n1` [compound 995], in that order: under 50 nM and 15.7 nM.

`Cc1nc2cc(C(F)(F)F)cc(C#N)c2c(=O)n1C/C=C/c1ccc(Cl)cc1-c1ccnc2c(C(=O)O)csc12` [compound 255]: the IC50 is 50 to 1000 nM under setting [1] and 78.5 nM under setting [2]. Turning to `Cc1cc(-c2cc(Cl)ccc2OCCn2c(C)nc3cc(C(F)(F)F)c(-c4ccncc4C)c(C#N)c3c2=O)c2scc(C(=O)O)c2n1` [compound 901], the IC50 is under 50 nM under setting [1] and 45.6 nM under setting [2]. For `Cc1nc2cc(Cl)c(C(F)F)c(C#N)c2c(=O)n1CCOc1ccc(Cl)cc1-c1ccnc2c(C(=O)NS(C)(=O)=O)csc12` [compound 520], in that order: under 50 nM and 18.3 nM.

As for `Cc1nc2c(Cl)cc(Cl)c(C#N)c2c(=O)n1CCOc1ccc(Cl)cc1-c1ccnc2c(C(=O)O)csc12` [compound 209], the IC50 runs as follows: under setting [1], under 50 nM; under setting [2], 47 nM. For the compound `CCc1cc(-c2cc(Cl)ccc2OCCn2c(C)nc3cc(C(F)(F)F)c(N4CCN(C)CC4)cc3c2=O)c2scc(C(=O)O)c2n1` [compound 1083], the IC50 under setting [1] was under 50 nM and the IC50 under setting [2] is 44 nM. The like results for `Cc1cc(-c2c(Cl)cc3nc(C)n(CCOc4ccc(Cl)cc4-c4cc(C)nc5c(C(=O)O)csc45)c(=O)c3c2C#N)ccn1` [compound 393] were, in that order, under 50 nM and 11.8 nM. For `Cc1nc2cc(OC(F)F)c(Cl)c(C#N)c2c(=O)n1CCOc1ccc(Cl)cc1-c1ccnc2c(C(=O)O)csc12` [compound 537], in that order: under 50 nM and 46.6 nM.
